Patent US20080199423A1, “Methods of Using Apo2l Receptor Agonists and Ink Cell Activators” (GENENTECH, INC., priority 2004, published 2008)

Assays:
NK cells = assay: Microarray (Affymetrix U133) gene expression analysis of poly(I:C)-treated NK cells; type: cell-based, human; details: for FoldChange / log10-FoldChange: relative to untreated NK cells
Description: A microarray based gene expression analysis using high-density oligonucleotide arrays (GeneChip, Affymetrix) was performed using RNA from resting and poly(I:C)-treated NK cells (NK cells were obtained and purified from 4 healthy donors using the technique described in Example 1 above). The NK cells were treated with poly(I:C) (50 μg/ml, Pharmacia) overnight in RPMI 1640 supplemented with heat inactivated 10% FCS, penicillin, streptomycin, 10 mM sodium pyruvate, 2 mM L-glutamine and 10 mM HEPES. RNA was isolated using a RNeasy kit (Qiagen), and treated with RNase-free DNase-I (Ambion) to ensure removal of contaminating DNA. NK cells were lysed in lysis buffer (50 mM HEPES pH7.5, 150 mM NaCl, 1.5 mM MgCl2, 1 mM EGTA, 10% glycerol and 1% Triton X-100, supplemented with Complete Protease Inhibitor Cocktail (Roche).
Affymetrix U133A and B GeneChip probe arrays were used to identify differentially expressed transcripts. Initially, the genes were ranked according to concordance in the pairwise comparison, and the Mann-Whitney pairwise comparison test was used to calculate significance. Genes for which the concordance was 100% were chosen for further analysis. This approach was previously validated to identify differentially expressed genes by confirming with real time RT-PCR. To determine confidence intervals shown in Table 1, the average log10-signal was computed for each probe set of the genes of interest, or the treatment and control groups. The estimated log10 fold change was defined as the difference between these averages. A pooled estimate of the standard deviation about the two groups' averages (computed separately for each probe set) was used to compute a 95% confidence interval for the log10 fold change. The estimated log10 fold change and the two endpoints of its 95% confidence interval were exponentiated back to the original signal scale, providing an estimate of fold change and a corresponding 95% confidence interval. Additional information about the U133 probe sets is available from the manufacturer, Affymetrix.
Fold change values and associated 95% confidence intervals (degree of freedom=6) were determined for genes of interest upon treatment with poly(I:C) relative to untreated NK cells. Data for each probe set present on the Affymetrix U133 chip series corresponding to the genes of interest is shown.

[1] = system: cell surface Apo2L/TRAIL on NK cells; assay: Flow cytometry of cell surface Apo2L/TRAIL on purified NK cells; type: cell-based, human; details: 5C2-Alexa 488 staining
Description: Cell surface Apo2L/TRAIL on purified NK cells treated with poly(I:C), R-848 or hIL-2 (30 ng/ml, BD Biosciences) was also analyzed by cytometry. Isotype control (IgG2a, Sigma) and anti-Apo2L/TRAIL antibody (5C2) were labeled with Alexa 488 (Molecular Probes). 5×10^5 cells were incubated with 2 μg of human IgG to block FcRs and 1 μg of the directly labeled mAbs at 4° C. for 45 minutes, followed by 2 washes. Stained cells were analyzed using a FACScan cytometer (Becton Dickenson) and Cellquest software.

[2] = gene Apo2L, probe set 202687_s_at
[3] = gene Apo2L, probe set 202688_at
[4] = gene Apo2L, probe set 214329_x_at
[5] = gene CCL19, probe set 210072_at
[6] = gene CCL20, probe set 205476_at
[7] = gene CCL21, probe set 204606_at
[8] = gene FasL, probe set 211333_s_at
[9] = gene Granulysin, probe set 37145_at
[10] = gene Granulysin, probe set 205495_s_at
[11] = gene Granzyme A, probe set 205488_at
[12] = gene Granzyme B, probe set 210164_at
[13] = gene Granzyme H, probe set 210321_at
[14] = gene Granzyme M, probe set 207460_at
[15] = gene IL-8, probe set 202859_x_at
[16] = gene IL-8, probe set 211506_s_at
[17] = gene NKG2-D, probe set 205821_at
[18] = gene NKG2-D, probe set 210690_at
[19] = gene NKG2A, probe set 206785_s_at
[20] = gene NKp30, probe set 210629_x_at
[21] = gene NKp30, probe set 211581_x_at
[22] = gene NKp30, probe set 211582_x_at
[23] = gene NKp30, probe set 214181_x_at
[24] = gene NKp30, probe set 214574_x_at
[25] = gene Perforin 1, probe set 214617_at
[26] = gene TNFα, probe set 207113_s_at
[27] = poly(I:C) treatment, microarray

poly(I:C)
FoldChange (NK cells; [2]): 13.42 | log10-FoldChange (NK cells; [2]): 1.13 | FoldChange (NK cells; [3]): 9.67 | log10-FoldChange (NK cells; [3]): 0.99 | FoldChange (NK cells; [4]): 5.85 | log10-FoldChange (NK cells; [4]): 0.77 | FoldChange (NK cells; [5]): 34.71 | log10-FoldChange (NK cells; [5]): 1.54 | FoldChange (NK cells; [6]): 7.96 | log10-FoldChange (NK cells; [6]): 0.9 | FoldChange (NK cells; [7]): 1.2 | log10-FoldChange (NK cells; [7]): 0.08 | FoldChange (NK cells; gene CCR7, probe set 206337_at): 4.79 | log10-FoldChange (NK cells; gene CCR7, probe set 206337_at): 0.68 | FoldChange (NK cells; gene FasL, probe set 210865_at): 2.37 | log10-FoldChange (NK cells; gene FasL, probe set 210865_at): 0.37 | FoldChange (NK cells; [8]): 2.49 | log10-FoldChange (NK cells; [8]): 0.4 | FoldChange (NK cells; [9]): 1.18 | log10-FoldChange (NK cells; [9]): 0.07 | FoldChange (NK cells; [10]): 1.25 | log10-FoldChange (NK cells; [10]): 0.1 | FoldChange (NK cells; [11]): 0.83 | log10-FoldChange (NK cells; [11]): −0.08 | FoldChange (NK cells; [12]): 1.04 | log10-FoldChange (NK cells; [12]): 0.02 | FoldChange (NK cells; [13]): 0.58 | log10-FoldChange (NK cells; [13]): −0.24 | FoldChange (NK cells; [14]): 0.81 | log10-FoldChange (NK cells; [14]): −0.09 | FoldChange (NK cells; gene IFNγ, probe set 210354_at): 14.45 | log10-FoldChange (NK cells; gene IFNγ, probe set 210354_at): 1.16 | FoldChange (NK cells; gene IL-6, probe set 205207_at): 10.43 | log10-FoldChange (NK cells; gene IL-6, probe set 205207_at): 1.02 | FoldChange (NK cells; [15]): 4.07 | log10-FoldChange (NK cells; [15]): 0.61 | FoldChange (NK cells; [16]): 3.42 | log10-FoldChange (NK cells; [16]): 0.53 | FoldChange (NK cells; [17]): 0.86 | log10-FoldChange (NK cells; [17]): −0.07 | FoldChange (NK cells; [18]): 0.66 | log10-FoldChange (NK cells; [18]): −0.18 | FoldChange (NK cells; [19]): 0.97 | log10-FoldChange (NK cells; [19]): −0.01 | FoldChange (NK cells; [20]): 0.38 | log10-FoldChange (NK cells; [20]): −0.42 | FoldChange (NK cells; [21]): 0.26 | log10-FoldChange (NK cells; [21]): −0.59 | FoldChange (NK cells; [22]): 0.19 | log10-FoldChange (NK cells; [22]): −0.72 | FoldChange (NK cells; [23]): 0.22 | log10-FoldChange (NK cells; [23]): −0.67 | FoldChange (NK cells; [24]): 0.25 | log10-FoldChange (NK cells; [24]): −0.6 | FoldChange (NK cells; [25]): 1.3 | log10-FoldChange (NK cells; [25]): 0.12 | FoldChange (NK cells; [26]): 2.68 | log10-FoldChange (NK cells; [26]): 0.43 | Expression of mRNA for FasL and TNF-alpha (NK cells; poly(I:C) treatment (activation of TLR3)): smaller, but reproducible increase | Decrease in expression of NKp30 in NK cells (NK cells; [27]): 3-5 fold | Decrease in expression of granzyme H in NK cells (NK cells; [27]): 3-5 fold | Expression of mRNAs encoding perforin, granulysin, granzymes A, B, M, NKG2D and NKp44 (NK cells; [27]): did not significantly alter | Increase in expression of Apo2L/TRAIL in NK cells (NK cells; [27]): ~10 fold | Cell surface expression of Apo2L/TRAIL on NK cells [1]: detectable cell surface expression
